Measurements: patent publication US8697694B2, “Substituted pyridine and pyrimidine derivatives and their use in treating viral infections” (priority 2008, dated 2014)
Like-named read-outs stand apart in the source and are kept apart here.

Tested on: HCV replicon cells
Assay: Cell-based HCV replicon assay (replicon RNA level by real time PCR, Taqman)
Settings: HCV replicon cells, read-out: EC90 (μM) range
Summary of the method: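 Readout: ΔCT between NS5B replicon RNA and GAPDH by real-time RT-PCR in lysates harvested on day 3, fitted sigmoidally; EC50 at ΔCT=1, EC90 at ΔCT=3.2. Compounds tested at ten 2-fold dilutions from 25 μM to 1 μM start, 10% FBS, 0.5% DMSO.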

[1] = Hepatitis C virus, 72 h, replicon RNA level by real time PCR, harvested day 3
[2] = Hepatitis C virus, 72 h, replicon RNA level by real time PCR (Taqman), harvested on day 3, calculated EC90 reported as range class
[3] = Hepatitis C virus, 72 h, harvested on day 3, replicon RNA by real time PCR, calculated EC90 reported as range class
[4] = Hepatitis C virus, 72 h, harvested day 3, replicon RNA by real time PCR, reported as range class
[5] = Hepatitis C virus, 72 h, harvested day 3, replicon RNA by real time PCR, given as number
[6] = Hepatitis C virus, 72 h, replicon RNA level by real time PCR (Taqman), day 3, calculated EC90

`CC[C@@H](Nc1nc(C)c(-c2nc3c(C)nccc3s2)c(N[C@@H]2C[C@H](CO)[C@@H](O)[C@H]2O)n1)c1ccc(C)cc1` [Example 1363] showed an EC90 [1] of under 0.5 µM.
`CCN(C[C@@H]1C[C@@H](Nc2nc(NCC(F)(F)F)nc(C)c2-c2nc3ccccc3s2)[C@H](O)[C@@H]1O)S(C)(=O)=O` [Example 1393] was tested, and the EC90 [1] was 0.5 to 5 µM.
`CCc1cc2cc(-c3c(C)nc(NC)nc3N[C@@H]3C[C@H](CO)[C@@H](O)[C@H]3O)oc2cn1` [Example 527] was tested, and the EC90 [2] was under 0.5 µM.
`CN(C)c1nc(Cl)c(-c2cc3ccncc3o2)c(N[C@@H]2C[C@H](CO)[C@@H](O)[C@H]2O)n1` [Example 522] gave an EC90 [3] of 0.5 to 5 µM.
For `CC(=O)OC[C@H]1C[C@@H](Nc2nc(N)nc(C)c2-c2nc3ccccc3s2)[C@H](O)[C@@H]1O` [Example 1915], the EC90 [1] was over 5 µM.
`COC[C@H]1C[C@@H](Nc2nc(N(C)C)nc(Cl)c2-c2nc3ccccc3s2)[C@@H]2OC(C)(C)O[C@H]12` [Example 120] showed an EC90 [4] of over 5 µM.
Compound `CCOCCNc1nc(C)c(-c2nc3c(C)nccc3s2)c(N[C@@H]2C[C@H](CO)[C@@H](O)[C@H]2O)n1` [Example 535] has an EC90 [2] of under 0.5 µM.
`Cc1ccccc1CNc1nc(C)c(-c2nc3ccccc3s2)c(N[C@@H]2C[C@H](CO)[C@H]3OC(C)(C)O[C@H]32)n1` [Example 487] gave an EC90 [3] of over 5 µM.
For `CCc1cc2cc(-c3c(C)nc(NCCOC)nc3N[C@@H]3C[C@H](CO)[C@@H](O)[C@H]3O)oc2cn1` [Example 508], the EC90 [3] was under 0.5 µM.
With `COCCNc1nc(C)c(-c2cc3cc(OC(C)C)nc(C)c3o2)c(N[C@@H]2C[C@H](CO)[C@@H](O)[C@H]2O)n1` [Example 37] the EC90 [5] was 0.3 µM.
Work on `Cc1nc(NCc2ccccc2F)nc(N[C@@H]2C[C@H](CO)[C@@H](O)[C@H]2O)c1-c1nc2ccccc2s1` [Example 233] yielded an EC90 [3] of under 0.5 µM.
Compound `Cc1nccc2cc(-c3c(Cl)nc(N)nc3N[C@@H]3C[C@H](CO)[C@@H](O)[C@H]3O)oc12` [Example 305] has an EC90 [4] of under 0.5 µM.
Compound `CNC[C@H]1C[C@@H](Nc2nc(NCC(F)(F)F)nc(C)c2-c2nc3ccccc3s2)[C@H](O)[C@@H]1O` [Example 1071] has an EC90 [2] of 0.5 to 5 µM.
For `CCOc1cc2sc(-c3c(C)nc(N[C@H](C)c4ccc(C)cc4)nc3N[C@@H]3C[C@H](CO)[C@@H](O)[C@H]3O)nc2c(C)n1` [Example 1375], the EC90 [1] was under 0.5 µM.
With `Cc1nc(Nc2cc[nH]n2)nc(N[C@@H]2C[C@H](CO)[C@@H](O)[C@H]2O)c1-c1nc2ccccc2s1` [Example 1222] the EC90 [2] was over 5 µM.
In the case of `Cc1nc(NCC(O)c2ccccc2)nc(N[C@@H]2C[C@H](CO)[C@@H](O)[C@H]2O)c1-c1nc2cnccc2s1` (stereo partly drawn) [Example 1918], the EC90 [1] is reported as under 0.5 µM.
Work on `COc1nc(C)cc2cc(-c3c(C)nc(NCC4CC4)nc3N[C@@H]3C[C@H](CO)[C@@H](O)[C@H]3O)oc12` [Example 1239] yielded an EC90 [2] of 0.5 to 5 µM.
Work on `Cc1nc(N[C@H](c2cccs2)C(F)(F)F)nc(N[C@@H]2C[C@H](CO)[C@@H](O)[C@H]2O)c1-c1nc2ccccc2s1` [Example 1803] yielded an EC90 [1] of over 5 µM.
Compound `Cc1nc(NCC2CC2)nc(N[C@@H]2C[C@H](CO)[C@@H](O)[C@H]2O)c1-c1nc2ccccc2o1` [Example 528] has an EC90 [2] of 0.5 to 5 µM.
Work on `Cc1nc(N[C@H](C)c2ccc(OC(F)(F)F)cc2)nc(N[C@@H]2C[C@H](C(C)O)[C@@H](O)[C@H]2O)c1-c1nc2c(C)nccc2s1` (stereo partly drawn) [Example 1399] yielded an EC90 [1] of under 0.5 µM.
`Cc1nc(NCCN2CCOCC2)nc(N[C@@H]2C[C@H](CO)[C@H]3OC(C)(C)O[C@H]32)c1-c1nc2ccccc2s1` [Example 248] showed an EC90 [3] of under 0.5 µM.
With `CCOc1cc2cc(-c3c(C)nc(NCc4c(F)cccc4F)nc3N[C@@H]3C[C@H](CO)[C@@H](O)[C@H]3O)oc2c(C)n1` [Example 50] the EC90 [5] was 0.05 µM.
`CCN(C[C@H]1C[C@@H](Nc2nc(NCC(F)(F)F)nc(C)c2-c2nc3ccccc3s2)[C@H](O)[C@@H]1O)S(C)(=O)=O` [Example 1392] gave an EC90 [1] of under 0.5 µM.
In the case of `Cc1ccc([C@@H](C)Nc2nc(C)c(-c3nc4ccccc4o3)c(N[C@@H]3C[C@H](CO)[C@@H](O)[C@H]3O)n2)cc1` [Example 1360], the EC90 [1] is reported as 0.5 to 5 µM.
For `Nc1nc(Cl)c(-c2cncs2)c(N[C@@H]2C[C@H](CO)[C@@H](O)[C@H]2O)n1` [Example 163], the EC90 [4] was over 5 µM.
For `CCCCCCNc1nc(C)c(-c2nc3ccccc3s2)c(N[C@@H]2C[C@H](CO)[C@@H](O)[C@H]2O)n1` [Example 455], the EC90 [3] was under 0.5 µM.
`CC(=O)NC[C@H]1C[C@@H](Nc2nc(NCC(F)(F)F)nc(C)c2-c2nc3ccccc3s2)[C@H](O)[C@@H]1O` [Example 1506] showed an EC90 [1] of 0.5 to 5 µM.
Work on `Cc1nc(NCc2cccc(N)c2)nc(N[C@@H]2C[C@H](CO)[C@H]3OC(C)(C)O[C@H]32)c1-c1nc2ccccc2s1` [Example 1111] yielded an EC90 [2] of 0.5 to 5 µM.
`CCc1cc2cc(-c3c(Cl)nc(N)nc3N[C@@H]3C[C@H](CO)[C@@H](O)[C@H]3O)oc2cn1` [Example 406] showed an EC90 [4] of under 0.5 µM.
`COc1cc(CCNc2nc(C)c(-c3nc4cnccc4s3)c(N[C@@H]3C[C@H](CO)[C@@H](O)[C@H]3O)n2)cc(OC)c1` [Example 2010] was tested, and the EC90 [6] was under 0.5 µM.
With `CCOc1cc2cc(-c3c(C)nc(NCC4CC4)nc3N[C@@H]3C[C@H](CNS(C)(=O)=O)[C@@H](O)[C@H]3O)oc2c(C)n1` [Example 1347] the EC90 [1] was under 0.5 µM.
Compound `Cc1nc(NCc2cccs2)nc(N[C@@H]2CC[C@H]3OC4(CCCCC4)O[C@@H]23)c1-c1nc2ccccc2s1` [Example 334] has an EC90 [3] of over 5 µM.
With `N#Cc1ccc2oc(-c3c(Cl)nc(N)nc3N[C@@H]3C[C@H](CO)[C@@H](O)[C@H]3O)cc2c1` [Example 171] the EC90 [4] was over 5 µM.
With `Cc1nc(NCCNC(=O)OCc2ccccc2)nc(N[C@@H]2C[C@H](CO)[C@@H](O)[C@H]2O)c1-c1nc2ccccc2s1` [Example 254] the EC90 [3] was 0.5 to 5 µM.
Work on `Cc1nc(NCC(F)(F)F)nc(N[C@@H]2C[C@H](C(C)O)[C@@H](O)[C@H]2O)c1-c1nc2ccccc2s1` (single isomer, unassigned) [Example 1648] yielded an EC90 (replicon RNA level by real time PCR, harvested day 3) of 0.5 to 5 µM.
`COc1cccc(CNc2nc(C)c(-c3nc4ccccc4s3)c(N[C@@H]3C[C@H](CO)[C@H]4OC(C)(C)O[C@H]43)n2)c1` [Example 483] was tested, and the EC90 [3] was 0.5 to 5 µM.
Compound `Cc1nc(NC2CC2)nc(N[C@@H]2C[C@H](CO)[C@@H](O)[C@H]2O)c1-c1nc2c(C)nccc2s1` [Example 1543] has an EC90 [1] of under 0.5 µM.
With `C[C@H](Nc1nc(Cl)c(-c2nc3ccccc3s2)c(N[C@@H]2C[C@H](CO)[C@@H](O)[C@H]2O)n1)c1ccccc1` [Example 440] the EC90 [3] was 0.5 to 5 µM.
With `CCNC(=O)OC[C@H]1C[C@@H](Nc2nc(NCC3CC3)nc(C)c2-c2nc3ccccc3s2)[C@H](O)[C@@H]1O` [Example 1629] the EC90 [1] was 0.5 to 5 µM.
`Cc1nc(NC(C)(C)c2ccccc2)nc(N[C@@H]2C[C@H](CO)[C@@H](O)[C@H]2O)c1-c1nc2ccccc2s1` [Example 1228] was tested, and the EC90 [2] was 0.5 to 5 µM.
`Cc1nc(NCC(C)(C)O)nc(N[C@@H]2C[C@H](CO)[C@@H](O)[C@H]2O)c1-c1nc2ccccc2s1` [Example 1014] was tested, and the EC90 [2] was under 0.5 µM.
`Cc1nc(NCC(F)(F)F)nc(N[C@@H]2CC[C@@H](O)[C@@]2(C)O)c1-c1nc2c(C)nccc2s1` [Example 1816] was tested, and the EC90 [1] was under 0.5 µM.
For `CCOc1cc2cc(-c3c(Cl)nc(NCC(F)(F)F)nc3N[C@@H]3C[C@H](CO)[C@@H](O)[C@H]3O)oc2c(C)n1` [Example 20], the EC90 [4] was under 0.5 µM.
`Cc1cccnc1CNc1nc(C)c(-c2nc3ccccc3s2)c(N[C@@H]2C[C@H](CO)[C@H]3OC(C)(C)O[C@H]32)n1` [Example 498] was tested, and the EC90 [3] was over 5 µM.
In the case of `Nc1nc(Cl)c(-c2nc3ccc(F)cc3s2)c(N[C@@H]2C[C@H](CO)[C@@H](O)[C@H]2O)n1` [Example 110], the EC90 [4] is reported as 0.5 to 5 µM.
For `CCCCCNc1nc(Cl)c(-c2cc3cc(CCC)nc(C)c3o2)c(N[C@@H]2C[C@H](CO)[C@@H](O)[C@H]2O)n1` [Example 446], the EC90 [3] was under 0.5 µM.
With `CCNc1nc(C)c(-c2nc3ccccc3s2)c(N[C@@H]2CC(C(C)(F)F)[C@@H](O)[C@H]2O)n1` (single isomer, unassigned) [Example 1074] the EC90 [2] was 0.5 to 5 µM.
In the case of `Cc1nc(Nc2ccccc2)nc(N[C@@H]2C[C@H](CO)[C@@H](O)[C@H]2O)c1-c1nc2ccccc2s1` [Example 1007], the EC90 [2] is reported as 0.5 to 5 µM.
Work on `COc1cc(CNc2nc(C)c(-c3cc4cc(OC)nc(C)c4o3)c(N[C@@H]3C[C@H](CO)[C@@H](O)[C@H]3O)n2)cc(OC)c1` [Example 348] yielded an EC90 [3] of under 0.5 µM.
Work on `COCCCNc1nc(C)c(-c2nc3ccccc3s2)c(N[C@@H]2C[C@H](CO)[C@@H](O)[C@H]2O)n1` [Example 223] yielded an EC90 [4] of under 0.5 µM.
`Cc1nc(NCC2CC2)nc(N[C@@H]2C[C@H](CO)[C@@H](O)[C@H]2O)c1-c1cc2cc(OC(C)C)nc(C)c2o1` [Example 39] was tested, and the EC90 [5] was 0.1 µM.
For `CCCc1nccc2sc(-c3c(C)nc(N[C@H](C)C4CC4)nc3N[C@@H]3C[C@H](Cn4ccnn4)[C@@H](O)[C@H]3O)nc12` [Example 1386], the EC90 [1] was under 0.5 µM.
In the case of `Cc1nc(NC(C)(C)C)nc(N[C@@H]2C[C@H](CO)[C@@H](O)[C@H]2O)c1-c1nc2ccccc2s1` [Example 429], the EC90 [3] is reported as under 0.5 µM.
`Cc1nc(NCCc2ccc(C(C)(C)C)cc2)nc(N[C@@H]2C[C@H](CO)[C@H]3OC(C)(C)O[C@H]32)c1-c1nc2cnccc2s1` [Example 2011] gave an EC90 [6] of over 5 µM.
`Cc1nc(NCC(F)(F)F)nc(N[C@@H]2C[C@H](CNC(=O)CO)[C@@H](O)[C@H]2O)c1-c1nc2ccccc2s1` [Example 1508] showed an EC90 [1] of 0.5 to 5 µM.
With `Cc1nc(NCc2ccsc2)nc(N[C@@H]2C[C@H](CO)[C@@H](O)[C@H]2O)c1-c1nc2ccccc2s1` [Example 331] the EC90 [3] was under 0.5 µM.
Compound `Cc1nc(NC2CC2)nc(N[C@@H]2C[C@H](CO)[C@@H](O)[C@H]2O)c1-c1nc2c(C3CC3)nccc2s1` [Example 1402] has an EC90 [1] of under 0.5 µM.
